# According to ChEMBL document CHEMBL1201862, “PubChem BioAssay data set” (2004):
# Activity calls are given as the source filed them.
# What was measured:
# [1] = target: T1, Leucine aminopeptidase (Plasmodium falciparum 3D7, UniProt Q8IL11); assay: P. falciparum M17LAP inhibitors, primary screen, biochemical, fluorogenic H-Leu-NHMec substrate, 1536-well (AID 1619); assay type: functional
# T1 sequence (Q8IL11 whole entry): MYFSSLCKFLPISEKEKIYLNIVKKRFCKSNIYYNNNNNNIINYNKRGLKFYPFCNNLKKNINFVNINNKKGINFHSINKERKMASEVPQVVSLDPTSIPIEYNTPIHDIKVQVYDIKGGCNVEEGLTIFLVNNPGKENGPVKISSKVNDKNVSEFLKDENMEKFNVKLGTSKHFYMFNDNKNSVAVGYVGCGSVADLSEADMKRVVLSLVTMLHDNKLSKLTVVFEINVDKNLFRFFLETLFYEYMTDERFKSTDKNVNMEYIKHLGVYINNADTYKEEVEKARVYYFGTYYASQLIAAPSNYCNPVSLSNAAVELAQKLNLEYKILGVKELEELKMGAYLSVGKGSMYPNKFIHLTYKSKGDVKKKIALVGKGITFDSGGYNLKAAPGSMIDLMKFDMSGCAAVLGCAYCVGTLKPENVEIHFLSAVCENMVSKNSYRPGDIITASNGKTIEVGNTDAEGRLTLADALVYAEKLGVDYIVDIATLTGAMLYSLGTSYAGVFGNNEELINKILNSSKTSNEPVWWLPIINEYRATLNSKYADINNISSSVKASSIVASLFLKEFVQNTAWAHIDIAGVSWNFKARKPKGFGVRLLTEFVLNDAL
# [2] = target: T2, Aspartyl aminopeptidase (Plasmodium falciparum 3D7, UniProt Q8I2J3); assay: Counterscreen for inhibitors of M1 and M17 aminopeptidases: QFRET-based biochemical high throughput dose response assay for inhibitors of the Plasmodium falciparum M18 Aspartyl Aminopeptidase (PFM18AAP). [Related PubChem assays: 1619 (Screening assay (M17LAP inhibitors).), 1445 (Screening assay (M1AAP inhibitors).)]
# T2 sequence (Q8I2J3 whole entry): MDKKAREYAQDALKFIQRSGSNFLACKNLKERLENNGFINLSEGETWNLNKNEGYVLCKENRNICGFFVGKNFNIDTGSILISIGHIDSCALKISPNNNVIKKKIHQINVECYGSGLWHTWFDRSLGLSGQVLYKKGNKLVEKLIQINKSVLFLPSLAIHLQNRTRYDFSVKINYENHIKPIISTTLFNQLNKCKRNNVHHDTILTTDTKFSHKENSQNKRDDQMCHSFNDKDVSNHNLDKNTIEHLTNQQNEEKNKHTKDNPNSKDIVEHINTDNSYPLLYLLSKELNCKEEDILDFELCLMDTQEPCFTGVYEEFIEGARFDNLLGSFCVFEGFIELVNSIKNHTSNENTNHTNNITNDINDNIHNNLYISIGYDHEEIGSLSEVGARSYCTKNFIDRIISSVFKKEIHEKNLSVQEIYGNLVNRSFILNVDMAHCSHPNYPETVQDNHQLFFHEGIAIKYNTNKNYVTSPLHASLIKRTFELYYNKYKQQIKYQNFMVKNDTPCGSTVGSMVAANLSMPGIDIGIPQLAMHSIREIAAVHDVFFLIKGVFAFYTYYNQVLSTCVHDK
# [3] = target: Procathepsin L (Homo sapiens, UniProt P07711); assay: cathepsin L inhibitors, dose response, counter-screen for M1/M17 aminopeptidase inhibitor project, biochemical, QFRET, 1536-well (AID 2214)
# [4] = target: Heat shock protein HSP 90-alpha (Homo sapiens, UniProt P07900); assay: Luminescence-based dose response biochemical high throughput screening assay for inhibitors of the Heat Shock Protein 90 (HSP90). [Related pubchem assays: 1831 (Summary AID.), 1846 (Confirmation screen.), 1789 (Primary screen.)]
# [5] = target: T3, Caspase-3 (Homo sapiens, UniProt P42574); assay type: functional;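 also: Dose-response selectivity test against caspase-3 for candidate inhibitors of sentrin-specific proteases (SENPs)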
# T3 sequence (P42574 whole entry): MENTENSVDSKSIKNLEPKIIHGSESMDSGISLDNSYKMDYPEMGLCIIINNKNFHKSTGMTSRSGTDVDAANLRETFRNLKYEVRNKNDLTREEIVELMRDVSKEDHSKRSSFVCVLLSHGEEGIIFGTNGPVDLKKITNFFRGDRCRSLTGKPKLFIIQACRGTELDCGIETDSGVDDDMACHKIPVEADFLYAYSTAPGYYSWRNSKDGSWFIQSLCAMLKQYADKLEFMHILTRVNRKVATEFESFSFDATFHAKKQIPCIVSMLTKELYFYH
# [6] = target: T4, Sentrin-specific protease 7 (Homo sapiens, UniProt Q9BQF6); assay type: functional;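 also: Luminescence-based dose-response confirmation of ultra-high-throughput screening hits, measuring inhibition of SENP7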
# T4 sequence (Q9BQF6 whole entry): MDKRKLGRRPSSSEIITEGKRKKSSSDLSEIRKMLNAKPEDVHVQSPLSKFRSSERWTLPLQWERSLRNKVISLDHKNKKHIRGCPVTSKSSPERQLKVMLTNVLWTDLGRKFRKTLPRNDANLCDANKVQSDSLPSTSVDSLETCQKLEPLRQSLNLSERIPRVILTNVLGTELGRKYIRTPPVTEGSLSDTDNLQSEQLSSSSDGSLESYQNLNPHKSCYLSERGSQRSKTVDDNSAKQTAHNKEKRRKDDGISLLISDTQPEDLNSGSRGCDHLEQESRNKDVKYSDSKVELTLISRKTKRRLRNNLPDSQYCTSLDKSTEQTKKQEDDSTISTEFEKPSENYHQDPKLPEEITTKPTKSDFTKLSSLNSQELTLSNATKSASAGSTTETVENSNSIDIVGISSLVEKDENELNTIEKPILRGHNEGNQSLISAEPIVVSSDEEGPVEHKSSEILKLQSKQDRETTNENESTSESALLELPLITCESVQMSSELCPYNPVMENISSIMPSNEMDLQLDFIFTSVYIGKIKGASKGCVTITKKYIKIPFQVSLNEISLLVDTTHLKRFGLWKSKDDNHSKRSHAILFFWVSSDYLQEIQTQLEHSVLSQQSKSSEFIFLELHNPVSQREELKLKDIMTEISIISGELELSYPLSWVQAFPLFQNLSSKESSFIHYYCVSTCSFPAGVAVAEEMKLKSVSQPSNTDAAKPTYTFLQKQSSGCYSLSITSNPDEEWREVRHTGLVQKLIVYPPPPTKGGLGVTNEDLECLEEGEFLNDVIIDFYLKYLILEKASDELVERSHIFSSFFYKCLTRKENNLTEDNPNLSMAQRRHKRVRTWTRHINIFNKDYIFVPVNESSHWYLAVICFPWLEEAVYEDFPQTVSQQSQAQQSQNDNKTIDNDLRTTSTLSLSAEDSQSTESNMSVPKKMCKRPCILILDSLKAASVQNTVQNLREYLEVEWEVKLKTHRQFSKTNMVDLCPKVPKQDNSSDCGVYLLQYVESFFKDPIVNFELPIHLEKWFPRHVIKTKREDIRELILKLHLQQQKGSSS
# [7] = target: T5, Sentrin-specific protease 6 (Homo sapiens, UniProt Q9GZR1); assay type: functional;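 also: Luminescence-based dose-response confirmatory assay of SENP6 inhibition, following up an ultra-high-throughput screen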
# T5 sequence (Q9GZR1 whole entry): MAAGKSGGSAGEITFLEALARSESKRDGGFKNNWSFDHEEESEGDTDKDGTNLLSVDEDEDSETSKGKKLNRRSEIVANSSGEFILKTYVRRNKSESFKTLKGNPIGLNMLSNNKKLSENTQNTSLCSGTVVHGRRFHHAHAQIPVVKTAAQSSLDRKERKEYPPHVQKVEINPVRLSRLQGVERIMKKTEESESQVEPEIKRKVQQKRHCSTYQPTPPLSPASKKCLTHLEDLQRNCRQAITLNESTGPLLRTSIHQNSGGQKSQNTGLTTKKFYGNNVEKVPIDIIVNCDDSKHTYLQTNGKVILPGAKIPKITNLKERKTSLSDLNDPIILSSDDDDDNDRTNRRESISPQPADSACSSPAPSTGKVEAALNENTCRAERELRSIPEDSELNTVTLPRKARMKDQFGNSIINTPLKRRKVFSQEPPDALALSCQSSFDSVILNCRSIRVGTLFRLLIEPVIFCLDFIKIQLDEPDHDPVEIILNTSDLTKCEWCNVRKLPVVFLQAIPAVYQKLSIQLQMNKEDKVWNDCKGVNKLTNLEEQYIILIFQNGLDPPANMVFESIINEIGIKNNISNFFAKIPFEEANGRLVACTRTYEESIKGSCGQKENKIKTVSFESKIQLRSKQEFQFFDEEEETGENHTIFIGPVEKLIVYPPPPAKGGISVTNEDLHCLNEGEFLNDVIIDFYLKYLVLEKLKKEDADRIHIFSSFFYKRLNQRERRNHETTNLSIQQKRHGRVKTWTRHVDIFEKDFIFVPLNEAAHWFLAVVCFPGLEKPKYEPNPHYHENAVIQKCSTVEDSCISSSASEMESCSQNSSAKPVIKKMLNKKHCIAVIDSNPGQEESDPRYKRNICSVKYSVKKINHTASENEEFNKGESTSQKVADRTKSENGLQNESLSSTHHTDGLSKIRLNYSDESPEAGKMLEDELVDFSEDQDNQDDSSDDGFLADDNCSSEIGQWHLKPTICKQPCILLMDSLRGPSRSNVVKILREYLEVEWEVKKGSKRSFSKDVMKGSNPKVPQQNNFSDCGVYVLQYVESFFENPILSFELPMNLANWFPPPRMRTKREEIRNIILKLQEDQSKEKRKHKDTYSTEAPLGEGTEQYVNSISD
# [8] = target: T6, Sentrin-specific protease 8 (Homo sapiens, UniProt Q96LD8); assay type: functional;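 also: luminescence read-out of SENP8 inhibition, dose-response confirmation following an ultra-high-throughput screen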
# T6 sequence (Q96LD8 whole entry): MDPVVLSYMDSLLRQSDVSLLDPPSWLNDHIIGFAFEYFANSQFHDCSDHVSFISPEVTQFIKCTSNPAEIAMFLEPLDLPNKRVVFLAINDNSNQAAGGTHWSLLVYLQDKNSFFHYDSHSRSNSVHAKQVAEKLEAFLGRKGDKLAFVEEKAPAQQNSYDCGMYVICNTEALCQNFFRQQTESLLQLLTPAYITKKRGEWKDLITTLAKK
# [9] = target: Luciferin 4-monooxygenase (Photinus pyralis, UniProt P08659); assay: Counter Screen for Luciferase-based Assay Positives. [Related pubchem assays: 620, 618, 411 ]
# [10] = test system: HT-1080; assay: cytotoxicity in HT1080 fibrosarcoma cells, cell-based, fluorescence readout (AID 620); assay type: functional; details: Homo sapiens
# [11] = microbe, parasite or virus in culture; assay type: functional; details: Mycobacterium tuberculosis
# [12] = HepG2 cell cytotoxicity, dose response, cytotoxicity control, plate reader, cherry-pick, antagonist series (AID 743416); assay type: functional, cell-based
# [13] = LGR2 antagonists, dose response, cell-based, HEK293, CRE-luciferase reporter, cherry pick, set 2 (AID 743343); assay type: functional;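 also: transfected cells were stimulated with diluted bursicon conditioned medium after compound addition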
# [14] = MC4R antagonists, dose response, counter-screen for LGR2 antagonist project, cell-based, plate reader, cherry pick (AID 743444); assay type: functional;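 also: transfected HEK 293 cells stimulated with alpha-MSH peptide; potency of inhibitors of the alpha-MSH evoked signal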
# [15] = HEK293 cell cytotoxicity, dose response, cytotoxicity control, plate reader, cherry-picked samples (AID 743446); assay type: functional, cell-based
# [16] = target: Prothrombin (Homo sapiens, UniProt P00734); assay: Thrombin 1536 HTS Dose Response Confirmation. [Related pubchem assays: 1046 (Thrombin 1536 HTS; hits were confirmed in this assay)]; assay type: functional
# Sequence of Luciferin 4-monooxygenase (P08659 whole entry): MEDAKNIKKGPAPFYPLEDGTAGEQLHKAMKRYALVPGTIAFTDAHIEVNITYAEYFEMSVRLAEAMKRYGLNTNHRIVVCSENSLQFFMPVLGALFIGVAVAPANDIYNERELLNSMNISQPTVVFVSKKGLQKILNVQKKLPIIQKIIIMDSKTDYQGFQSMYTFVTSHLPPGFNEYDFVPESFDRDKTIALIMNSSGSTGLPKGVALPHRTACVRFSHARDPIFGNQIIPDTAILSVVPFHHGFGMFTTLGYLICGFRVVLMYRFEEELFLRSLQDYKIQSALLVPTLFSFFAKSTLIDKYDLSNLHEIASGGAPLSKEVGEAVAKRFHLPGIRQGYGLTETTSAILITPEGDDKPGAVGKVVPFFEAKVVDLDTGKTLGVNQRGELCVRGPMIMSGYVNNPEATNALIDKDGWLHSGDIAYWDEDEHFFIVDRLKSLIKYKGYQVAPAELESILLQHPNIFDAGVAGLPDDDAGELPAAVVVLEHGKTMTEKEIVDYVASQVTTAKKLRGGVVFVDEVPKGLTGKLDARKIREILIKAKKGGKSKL
# Sequence of Procathepsin L (P07711 whole entry): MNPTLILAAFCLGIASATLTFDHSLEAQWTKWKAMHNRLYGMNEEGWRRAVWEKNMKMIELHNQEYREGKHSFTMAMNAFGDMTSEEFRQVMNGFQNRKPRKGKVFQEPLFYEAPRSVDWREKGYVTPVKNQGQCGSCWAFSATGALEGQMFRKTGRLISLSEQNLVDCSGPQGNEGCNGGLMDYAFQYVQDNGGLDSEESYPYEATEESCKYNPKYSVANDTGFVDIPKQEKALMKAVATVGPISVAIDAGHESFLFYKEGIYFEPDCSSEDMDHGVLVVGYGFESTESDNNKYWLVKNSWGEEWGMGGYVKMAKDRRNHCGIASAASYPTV
smiles,measurement,setting,value
Cc1ccc(Nc2nnc(SCC(=O)NC(Cc3c[nH]c4ccccc34)C(=O)O)s2)cc1 (stereo not drawn),IC50,[1],3.25 µM (active)
same,IC50,[2],> 73.5 µM (not active)
same,IC50,[3],> 59.6 µM (not active)
CN1C(=O)S/C(=C/c2ccc(OCc3cccc(C(=O)O)c3)cc2)C1=O,IC50,[4],> 20 µM (not active)
same,IC50,[5],88.1 µM (active)
same,IC50,[6],6.05 µM (active)
same,IC50,[7],4.42 µM (active)
same,IC50,[8],8.88 µM (active)
Cc1cc(C)n(-c2nc3ccccc3nc2N2CCC(C)CC2)n1,EC50,[9],1.01 µM (active)
same,EC50,[10],> 50 µM (not active)
CC(C)(C)c1ccc(-c2nc(-c3ccncc3)no2)cc1,EC50,[9],0.57 µM (active)
same,CC50,[11],34.2 µM (active)
same,EC50,[10],> 50 µM (not active)
same,AC50,[12],30.1 µM (active)
same,AC50,[13],12.9 µM (active)
same,AC50,[14],20.8 µM (active)
same,AC50,[15],> 52 µM (inactive)
O=C(CCC1CCCN(C(=O)C2(c3ccccc3)CC2)C1)N1CCN(c2ccccn2)CC1 (stereo not drawn),IC50,[16],> 50 µM (not active)
